Source: paper PMC11325505, “Nitrogen-Containing Flavonoids—Preparation and Biological Activity” (ACS Omega, 2024)
In brackets after ≈: the same amount, converted by molar mass. Several values for one entry are separate records, joined by “and”; a condition that tells them apart may be missing. Equal entries are not always repeated. Where two headings read alike, the source gives them in different places.

Experiments:
[1] = test system: Staphylococcus aureus MRSA 9; assay: Modulation of antibiotic-resistant phenotype (flavonoid plus breakpoint concentration of antibiotic); assay type: cell-based; settings: MIC determined as IC70, three repetitions ± SEM; for minimum inhibitory concentration (MIC) in the presence of erythromycin: erythromycin at breakpoint concentration 1 mg/L; for minimum inhibitory concentration (MIC) in the presence of gentamicin: gentamicin at breakpoint concentration 1 mg/L
Experimental: To evaluate the ability to modulate bacterial resistance, the tested flavonoids themselves cannot exert antimicrobial activity; therefore, the nontoxic concentration was used, as indicated in Table S5. Clinically relevant antibiotics were selected at breakpoint concentrations for susceptibility testing according to the European Committee on Antimicrobial Susceptibility Testing (EUCAST, version 11.0). […] Flavonoids and their derivatives (from 1 μM to the highest nontoxic concentration) were used in combination with the breakpoint concentration of the antibiotics. After coincubation, the minimum inhibitory concentration (MIC) of flavonoids inhibiting the visible growth of bacteria was determined (Table 2).
(§1) Sensitization of multidrug-resistant clinical bacterial strains was performed according to ref[15]. Antibiotic cutoff concentration was chosen according to the European Committee on Antimicrobial Susceptibility Testing (EUCAST, Clinical breakpoints–bacteria, ver. 11.0). The 200 μM concentration of the derivatives was chosen as the highest test concentration. The absorbance detected at 600 nm was then used to estimate the number of viable cells after 24 h of incubation at 37 °C and 120 rpm.
(§2) Experiments were performed with the respective number of replicates indicated in each figure/table. MIC was determined as IC70. Both IC70 and IC50 values were calculated using the following nonlinear regression in the software GraphPad Prism: […]

[2] = test system: nitric oxide (NO) production by RAW 264.7 stimulated by LPS; assay: Anti-inflammatory activity: NO production by LPS-stimulated macrophages; assay type: cell-based, Murine; settings: Mus musculus, RAW264.7; LPS-stimulated RAW 264.7; average of four repetitions ± SEM
Experimental: (§3) The anti-inflammatory activity of flavonoids was evaluated as their ability to decrease the production of signaling molecules that mediate inflammation, such as nitric oxide (NO), tumor necrosis factor (TNF-α), and interleukin 6 (IL-6), in LPS-stimulated macrophages.
(§4) The anti-inflammatory activity of the tested flavonoids was determined as the ability to reduce the production of nitric oxide (NO), tumor necrosis factor (TNF-α), and interleukin 6 (IL-6) by RAW 264.7 stimulated by LPS, as previously described.[39],[40] Briefly, 1 × 10^6 cells/mL was seeded into the 96-well plate (100 μL/well). After 48 h, LPS (100 ng/mL) and the samples (3–100 μM) were added to the MEM medium. After 24 h, the medium was mixed with Griess reagent (0.04 g/mL) at a 1:1 ratio. The absorbance was measured after 15 min at 540 nm. Cell viability was determined using the resazurin assay.

S. aureus CCM 4223 = assay: Antibacterial activity, antibiotic-sensitive strain; assay type: cell-based; settings: Staphylococcus aureus, CCM4223, three repetitions ± SEM
[3] = test system: Methicilin-Resistant S. aureus 331 Strain; assay: Mode of antimicrobial action with erythromycin, ermC-positive strain; assay type: cell-based; settings: for MIC, erythromycin [1 mg/L] yes / MIC, erythromycin [1 mg/L] no: MRSA 331 (ermC); for MIC, erythromycin [1 mg/L] yes: with erythromycin 1 mg/L; for MIC, erythromycin [1 mg/L] no: without erythromycin; for FIC (Fractional Inhibitory Concentration Index): MRSA 331, with erythromycin
Text: (§5) Erythromycin is a macrolide antibiotic that inhibits proteosynthesis by binding to the 50S subunit of the ribosome. In Staphylococcus species, resistance to erythromycin is associated with the presence of methyltransferases (encoded by erm genes) that alter the ribosomal target site. Another typical mechanism of resistance to erythromycin is the presence of an ATP-dependent efflux pump encoded by the msr(A) gene or a major facilitator superfamily (MFS) pump encoded by the lmrS gene. Both efflux pumps reduce the concentration of erythromycin in the cell below the therapeutic dose by transporting it across the membrane to the extracellular space. Another erythromycin resistance gene is the mph(C) gene, the product of which is a phosphotransferase that alters the structure of macrolide antibiotics. To elucidate the mechanism of erythromycin resistance modulation in S. aureus, further tests were performed with the strains MRSA 331 and MRSA 3596, which inactivate erythromycin via a single mechanism (ermC and ermA, respectively). […] Therefore, if the activity was not strain-specific, it would be necessary to consider the effect of the derivatives on this pump (Table 3).
as §1, §2

[4] = test system: immortalized human keratinocytes (HaCaT); assay: Cytotoxicity (resazurin assay), keratinocytes; assay type: cell-based; settings: Homo sapiens, HaCaT, 72 h, read-out: HaCaT IC50 (concentration that halved the viability)
Experimental: The cytotoxicity of the prepared derivatives was evaluated by their ability to decrease the viability of immortalized human keratinocytes (HaCaT) and human dermal fibroblasts (HDF).
100 μL of cell suspension containing 10^5 cells/mL was pipetted into a 96-well plate. After 24 h incubation, the tested compounds were added in the concentration range 12.5–200 μM. After 72 h incubation, the cell viability was tested by standard resazurin assay.[41] Briefly, the cells were washed with PBS and incubated with 100 μL of resazurin solution (0.025 mg/mL) for 2 h. The fluorescence was measured at a wavelength of 560 nm excitation/590 nm emission.

MRSA 3596 = assay: Mode of antimicrobial action with erythromycin or gentamicin, ermA- and aadD-positive strain; assay type: cell-based, S. aureus; settings: for effect (mode of action with erythromycin) / effect (mode of action with gentamicin) / FIC (Fractional Inhibitory Concentration Index): MRSA 3596; for MIC, Gentamicin [1 mg/L] yes / MIC: MRSA 3596 (aadD); for MIC, Gentamicin [1 mg/L] yes: with gentamicin 1 mg/L; for MIC, erythromycin [1 mg/L] yes / MIC, erythromycin [1 mg/L] no: MRSA 3596 (ermA); for MIC, erythromycin [1 mg/L] yes: with erythromycin 1 mg/L; for MIC, erythromycin [1 mg/L] no: without erythromycin, Table 4; for MIC: Staphylococcus aureus, 24 h, read-out: MIC, Gentamicin [1 mg/L] no, without gentamicin, Table S6
Text: as §5
Among the mechanisms of resistance to gentamicin previously described in S. aureus, the presence of enzymes that alter the structure of aminoglycosides is crucial. These enzymes can transfer nucleotides, phosphates, or acetyls to various −OH or −NH2 groups of gentamicin, preventing its subsequent interaction with the cellular target, i.e., the 30S ribosomal subunit. The bifunctional aminoglycoside-modifying enzyme with acetylation and phosphotransferase activities encoded by the gene aac(6’)/aph(2’), 4′,4″ adenyltransferase encoded by the aadD gene, and aminoglycoside O-phosphotransferase encoded by the gene aph(3′) are the most important.[37] […] For this reason, further testing continued using strains MRSA 3596 and MRSA 1584, which inactivate gentamicin only by a single mechanism (aadD and aac(6’)-aph(2’’), respectively).
as §1, §2

[5] = test system: tumor necrosis factor (TNF-α) production by RAW 264.7 stimulated by LPS; assay: Anti-inflammatory activity: TNF-α production by LPS-stimulated macrophages; assay type: cell-based, Murine; settings: Mus musculus, RAW264.7; LPS-stimulated RAW 264.7; average of four repetitions ± SEM; read-out: TNFα production IC50
Experimental: as §3, §4
To determine TNF-α levels, cells were precultivated with the tested compounds for 24 h. After 2 h of incubation with LPS, the medium was diluted 1:10 with ELISA diluent. To determine the level of IL-6, cells were cultivated for 6 h with LPS and the tested compounds. Cytokine production was determined using an uncoated ELISA performed according to the manufacturer’s instructions.

Structure (SMILES)	minimum inhibitory concentration (MIC) in the presence of erythromycin [1]	minimum inhibitory concentration (MIC) in the presence of gentamicin [1]	IC50 [2] [µM]	IC50 (S. aureus CCM 4223) [µM]	MIC, erythromycin [1 mg/L] yes [3] [µM]	MIC, erythromycin [1 mg/L] no [3] [µM]	FIC (Fractional Inhibitory Concentration Index) [3]	IC50 [4] [µM]	effect (mode of action with erythromycin) (MRSA 3596)	effect (mode of action with gentamicin) (MRSA 3596)	MIC, Gentamicin [1 mg/L] yes (MRSA 3596) [µM]	MIC, erythromycin [1 mg/L] yes (MRSA 3596) [µM]	MIC, erythromycin [1 mg/L] no (MRSA 3596) [µM]	effect (mode of action with erythromycin) (MRSA 3596; listed as luteolin)	FIC (Fractional Inhibitory Concentration Index) (MRSA 3596; with erythromycin)	FIC (Fractional Inhibitory Concentration Index) (MRSA 3596; with gentamicin)	MIC (MRSA 3596) [µM]	IC50 [5] [µM]	IC50 ([4]; 72 h incubation, resazurin, average of three repetitions ± SEM) [µM]
O=c1cc(-c2ccc(O)c(O)c2)oc2cc(O)cc(O)c12 [compound 10, luteolin, reference compound]	147.3 ± 7.7 µM	84.7 ± 1.8 µM	13.3 ± 0.2	> 200	31.6 ± 2.5 (≈ 9.05 µg/mL)	28.1 ± 0.3 (≈ 8.04 µg/mL)	1.12 ± 0.10	34.7 ± 1	synergy (Fractional Inhibitory Concentration Index (FIC) < 0.5 indicates synergism)	synergy (Fractional Inhibitory Concentration Index (FIC) < 0.5 indicates synergism)	6.7 ± 0.1 (≈ 1.92 µg/mL)	14.3 ± 0.9 (≈ 4.09 µg/mL)	51.1 ± 1.3 (≈ 14.6 µg/mL)	synergistic activity	0.28 ± 0.02	0.13 ± 0.01	51.1 ± 1.3 (≈ 14.6 µg/mL)	25.9 ± 0.3	
COc1ccc(Nc2c(O)cc(O)c3c(=O)cc(-c4ccc(O)c(O)c4)oc23)cc1 [compound 12, 2-(3,4-Dihydroxyphenyl)-8-(4-methoxyanilino)-5,7-dihydroxy-4H–1-benzopyran-4-one]	76.3 µM and 76.3 ± 1.9 µM	44.0 ± 1.6 µM	48.3 ± 1.3	54 ± 0.1	54.8 ± 0.4 (≈ 22.3 µg/mL)	54.4 ± 2.1 (≈ 22.2 µg/mL)	1.01 ± 0.05		synergy (Fractional Inhibitory Concentration Index (FIC) < 0.5 indicates synergism)	synergy (Fractional Inhibitory Concentration Index (FIC) < 0.5 indicates synergism)	31.4 ± 1.0 (≈ 12.8 µg/mL)	20.0 ± 0.6 (≈ 8.15 µg/mL)	53.6 ± 0.5 (≈ 21.8 µg/mL)		0.37 ± 0.01	0.34 ± 0.01	91 ± 0.9 (≈ 37.1 µg/mL)	> 50	59.3 ± 6.3
O=c1cc(-c2ccc(O)c(O)c2)oc2c(Nc3ccc(F)cc3)c(O)cc(O)c12 [compound 11, 2-(3,4-Dihydroxyphenyl)-8-(4-fluoroanilino)-5,7-dihydroxy-4H–1-benzopyran-4-one]	>25 ^note 4 μM	7.9 µM and 7.9 ± 0.5 µM	> 25	42 ± 1.2	57.4 ± 0.2 (≈ 22.7 µg/mL)	57.6 ± 0.2 (≈ 22.8 µg/mL)	1.00 ± 0.01	76.9 ± 7.7			> 200	28.0 ± 0.5 (≈ 11.1 µg/mL)	32.9 ± 0.6 (≈ 13 µg/mL)		0.85 ± 0.03		> 200	28.4 ± 0.2	
